Test results taken from patent US5082937A, “Benzodiazepines and applications in therapeutic practice” (Jouveinal S.A., priority 1989, dated 1992).
Where two headings read alike, the source gives them in different places.

How the values were obtained:
[1] = molecular target: T1, peripheral cholecystokinin receptor: CCK-A (Rattus norvegicus, UniProt P30551); experiment: Binding affinity for the peripheral cholecystokinin receptor (CCK A), plasma membranes of the rat pancreas, inhibition of labelled [125I]-CCK8 sulphate binding
T1 construct: plasma membranes of the rat pancreas; from tissue; host or cells: pancreas plasma membranes of male SD rats (animals from IFFA CREDO)
T1 sequence (P30551 1-444): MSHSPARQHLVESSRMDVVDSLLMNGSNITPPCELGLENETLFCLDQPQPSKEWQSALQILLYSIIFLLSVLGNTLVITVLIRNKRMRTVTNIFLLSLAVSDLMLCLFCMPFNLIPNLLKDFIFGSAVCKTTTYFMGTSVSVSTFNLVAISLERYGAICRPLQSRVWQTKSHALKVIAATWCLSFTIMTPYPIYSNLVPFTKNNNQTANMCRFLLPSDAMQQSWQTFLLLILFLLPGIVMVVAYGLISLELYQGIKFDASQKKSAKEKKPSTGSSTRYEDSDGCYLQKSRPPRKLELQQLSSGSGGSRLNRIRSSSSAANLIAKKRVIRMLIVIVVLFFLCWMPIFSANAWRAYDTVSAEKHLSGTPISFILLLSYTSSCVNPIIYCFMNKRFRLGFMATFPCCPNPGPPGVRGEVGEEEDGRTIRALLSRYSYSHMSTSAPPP
From the text: (§1) The "in vitro" studies consisted in determining the binding affinity of the compounds of the invention for the cholecystokinin and gastrin receptors.
(§2) The aim of these experiments was to determine the solution concentrations of products of formula (I) which were capable of inhibiting in relation to the receptors in question fifty percent of the cholecystokinin bonds, labelled with […] (abbreviated below as [1251]-CCK8 sulphate) or in the case of the iodine-125-labelled gastrin receptor with the following receptors:
plasma membranes of the rat pancreas (male SD, rats, IFFA CREDO 200-225 g) (peripheral cholecystokinin receptor: CCK-A),
(§3) in accordance with the experimental protocol described by INNIS, R. B. and S. M. SNYDER, Eur. J. Pharmacol., 1980 65 123-124.
(§4) The unit of measurement is the nanomole.

[2] = molecular target: T2, central cholecystokinin receptor: CCK-B (Cavia porcellus, UniProt H0VZC5); experiment: Binding affinity for the central cholecystokinin receptor (CCK B), guinea-pig brain membranes, inhibition of labelled [125I]-CCK8 sulphate binding
T2 construct: guinea-pig brain membranes; from tissue; host or cells: brain membranes of male guinea pigs (animals from COBLABO)
T2 sequence (H0VZC5 1-426): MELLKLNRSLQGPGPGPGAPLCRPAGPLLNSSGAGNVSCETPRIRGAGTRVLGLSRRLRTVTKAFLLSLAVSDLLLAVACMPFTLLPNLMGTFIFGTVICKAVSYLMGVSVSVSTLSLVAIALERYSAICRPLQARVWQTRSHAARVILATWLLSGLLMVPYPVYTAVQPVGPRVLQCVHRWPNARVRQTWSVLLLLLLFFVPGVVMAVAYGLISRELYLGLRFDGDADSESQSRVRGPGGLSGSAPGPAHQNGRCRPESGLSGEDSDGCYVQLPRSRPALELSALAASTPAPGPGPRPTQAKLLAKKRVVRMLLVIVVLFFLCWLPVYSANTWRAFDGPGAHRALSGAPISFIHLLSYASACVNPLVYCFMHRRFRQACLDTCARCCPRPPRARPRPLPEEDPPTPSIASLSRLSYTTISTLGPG
From the text: (§5) The "in vitro" studies consisted in determining the binding affinity of the compounds of the invention for the cholecystokinin and gastrin receptors. […]
(§6) guinea-pig brain membranes (males, COBLABO, 325-350 g) (central cholecystokinin receptor: CCK-B).
as §3, §4

[3] = tested on: central cholecystokinin receptor: CCK-B; experiment: as above; settings: for Selectivity CCK B/CCK A: IC50 CCK A / IC50 CCK B
From the text: as §5, §6, §3, §4

gastrin receptor [4] = molecular target: T3, gastrin receptor (Cavia porcellus, UniProt H0VZC5); experiment: Binding affinity for the gastrin receptor, guinea-pig gastric glands, iodine-125-labelled gastrin
T3 construct: guinea-pig gastric glands; from tissue; host or cells: gastric glands of male guinea pigs (animals from COB LABO)
T3 sequence (H0VZC5 1-426): T2 sequence (H0VZC5 1-426)
From the text: as §1, §2
(§7) guinea-pig gastric glands (males, COB LABO, 325-350 g) in accordance with the method described by PRAISSMAN, M., M. E. WALDEN and C. PELLECHIA. Journal of Receptor Research, 1983 3 647-665 (gastrin receptor).
as §4

[5] = tested on: A receptors of cholecystokinin; settings: published, in vitro; cited from earlier work
[6] = tested on: gastric evacuation, slowed down by CCK-8 (peripheral receptor CCK-A); experiment: Gastric evacuation slowed down by CCK-8 in the mouse; assay type: in vivo; settings: oral; for ED50: Mus musculus, SWISS male mice, CCK-8 80 μg/kg subcutaneous
Procedure: The antagonist activity of CCK on the digestive motor effects of the hormone has been examined in relation to the gastric evacuation, slowed down by the subcutaneous administration of CCK-8 (80 μg/kg) in SWISS male mice (IFFA CREDO 16-20 g), using the technique described by Lotti, V. J., D. J. Cerino, P. J. Kling and R. S. L. Chang. Life Sciences, 1986 39, 1631-1638.

gastrin receptors = settings: published, in vitro, cited from earlier work
[7] = tested on: gastrin-induced acid secretion; experiment: Gastrin-induced acid secretion in the rat (chronic gastric fistula, pentagastrin perfusion); assay type: in vivo; settings: 1 mg/kg oral; for Gastric secretion % inhibition: SD male rat, pentagastrin 6 μg/kg/h i.v.
Procedure: The activity of the products of the invention in relation to gastrin-induced acid secretion in the rat has been studied by the method described by Pascaud, X. P. , A. R. Roger and M. J. H. Genton. Digestion, […] 16 57-68. The method consists in collecting the gastric acid secretion over two consecutive 2 hour periods in SD male rats (IFFA CREDO 250-300 g), provided with a chronic gastric fistula and continuously perfused i.v. with a pentagastrin solution (Peptavlon, ICI, 6 μg/kg/h). The inhibition of this secretion by the oral administration of 1 mg/kg product of the invention has been determined.

gastrin receptor [8] = experiment: Binding affinity for the gastrin receptor, guinea-pig gastric glands, iodine-125-labelled gastrin; settings: for Selectivity GASTRIN/CCK A: IC50 CCK A / IC50 gastrin
From the text: as §1, §2, §7, §4

[9] = guinea-pig brain membranes; Table I; read-out: IC50 Receptor bond CCK B
[10] = in comparison with compound XXa
[11] = guinea-pig gastric glands; Table I; read-out: IC50 Receptor bond Gastrin

O=C(Nc1cnc2ccccc2c1)NC1N=C(c2ccccc2)c2cccc3c2N(CCC3)C1=O (racemic) [Example 23, (5R,S)-N-(keto-4-phenyl-7-hexahydro-1,2,3,3a,4,5-pyrido[3,2,1-j,k]benzodiazepine[1,4]-yl-5)-N'-(quinolinyl-3-)-urea]
IC50 [1]: 389 nM | IC50 [2, 9]: 176 nM | factor less active on the CCK B receptor than XXa [2, 10]: 2 factor | higher selectivity for the CCK B receptor than XXa [3, 10]: ~30 times | IC50 (gastrin receptor [4]; [11]): 298 nM | times less active on the gastrin receptor than XXa (gastrin receptor [4]; [10]): ~60 times

Cc1cccc(NC(=O)N[C@@H]2N=C(c3ccccc3)c3ccccc3N(C)C2=O)c1 [XXa, reference compound]
CCK-A activity, term of the CCK-A/gastrin ratio [5]: 290 | ED50 [6]: 0.15 mg/kg | gastrin activity, term of the CCK-A/gastrin ratio (gastrin receptors): 1.9 | CCK-A/gastrin activity ratio (times more favourable to gastrin receptors) (gastrin receptors; ratio 290/1.9): about 150 times | IC50 ([1]; rat pancreas plasma membranes, Table I, read-out: IC50 Receptor bond CCK A): 1420 nM | IC50 ([2]; read-out: IC50 Receptor bond CCK B; guinea-pig brain membranes; Table I): 81.4 nM | Selectivity CCK B/CCK A [3]: 17 | Gastric secretion % inhibition [7]: 29% | IC50 (gastrin receptor [4]; read-out: IC50 Receptor bond Gastrin; guinea-pig gastric glands; Table I): 4.7 nM | Selectivity GASTRIN/CCK A (gastrin receptor [8]): 302 | CCK-A/gastrin activity ratio reproduced by the Applicant (times more favourable to gastrin receptors) (gastrin receptor [8]; ratio 1419/4.7): about 300 times

Cc1cccc(NC(=O)NC2N=C(c3ccccc3)c3cccc4c3N(CC4)C2=O)c1 (racemic) [Example 1, (4R,S)-N-(keto-3-phenyl-6-tetrahydro-1,2,3,4-pyrrolo[3,2,1-j,k]benzodiazepine[1,4]-yl-4)-N'-(methyl-3-phenyl-)-urea]
IC50 [1]: 59.6 nM | IC50 [2, 9]: 431 nM | IC50 (gastrin receptor [4]; [11]): 14.4 nM

O=C1C(NC(=S)Nc2ccc(Br)cc2)N=C(c2ccccc2)c2cccc3c2N1CCC3 (racemic) [Example 10, (5R,S)-N-(keto-4-phenyl-7-hexahydro-1,2,3,3a,4,5-pyrido[3,2,1-j-k]benzodiazepine-[1,4]-yl-5)-N'-(bromo-4-phenyl-)-thiourea]
ED50 [6]: 15.5 mg/kg | times more product required than XXa for 50% reduction of the inhibiting effects of CCK-8 on gastric evacuation ([6]; in comparison with XXa): 100 times | IC50 [1]: 3040 nM | IC50 [2, 9]: 88 nM | Gastric secretion % inhibition [7]: 31% | inhibiting activity on gastrin-induced acid secretion compared with XXa ([7]; in words): identical | IC50 (gastrin receptor [4]; [11]): 3.2 nM | times less active on the gastrin receptor than XXa (gastrin receptor [4]; [10]): 1.5 times | activity compared with reference compound XXa (gastrin-specific compounds) (gastrin receptor [4]; in words): similar

Cc1cccc(NC(=O)N[C@@H]2N=C(c3ccccc3)c3cccc4c3N(CC4)C2=O)c1 [Example 2, (4R)-N-(keto-3-phenyl-6-tetrahydro-1,2,3,4-pyrrolo[3,2,1-j,k]benzodiazepine-[1,4]-yl-4)-N'-(methyl-3-phenyl-)-urea]
IC50 [1]: 1020 nM | activity on the CCK A receptor compared with XXa ([1]; in words): of the same order | IC50 [2, 9]: 99.9 nM | activity on the CCK B receptor compared with XXa ([2]; in words): of the same order | IC50 (gastrin receptor [4]; [11]): 85.9 nM | times less active on the gastrin receptor than XXa (gastrin receptor [4]; [10]): 20 times

O=C(Nc1ccc([N+](=O)[O-])cc1)NC1N=C(c2ccccc2)c2cccc3c2N(CCC3)C1=O (racemic) [Example 8, (5R,S)-N-(keto-4-phenyl-7-hexahydro-1,2,3,3a,4,5-pyrido[3,2,1-j,k]benzodiazepine-[1,4]-yl-5)-N'-(nitro-4-phenyl-)-urea]
IC50 [1]: 3080 nM | IC50 [2, 9]: 1810 nM | IC50 (gastrin receptor [4]; [11]): 60 nM

Cc1cccc(NC(=O)N[C@@H]2N=C(c3ccccc3)c3cccc4c3N(CCC4)C2=O)c1 [Example 7, (+)-(5R)-N-(keto-4-phenyl-7-hexahdyro-1,2,3,3a,4,5-pyrido [3,2,1-j,k]benzodiazepine[1,4]-yl-5)-N'-(methyl-3-phenyl-)-urea]
IC50 [1]: 1730 nM | IC50 [2, 9]: 255 nM | IC50 (gastrin receptor [4]; [11]): 40.5 nM

Cc1cccc(NC(=O)NC2N=C(c3ccccc3)c3cccc4c3N(CCC4)C2=O)c1 (racemic) [Example 5, (5R,S)-N-(keto-4-phenyl-7-hexahydro-1,2,3,3a,4,5-pyrido [3,2,1-j,k]benzodiazepine-[1,4]-yl-5)-N'-(methyl-3-phenyl-)-urea]
IC50 [1]: 84.2 nM | IC50 [2, 9]: 251 nM | IC50 (gastrin receptor [4]; [11]): 1.5 nM | times less active on the gastrin receptor than XXa (gastrin receptor [4]; [10]): 3 times | activity compared with reference compound XXa (gastrin-specific compounds) (gastrin receptor [4]; in words): similar

O=C1C(NC(=S)Nc2ccc(Br)cc2)N=C(c2ccccc2)c2cccc3c2N1CCC3 (stereo in doubt) [Example 26, (5S)-N-(keto-4-phenyl-7-hexahydro-1,2,3,3a,4,5-pyrido[3,2,1-j,k]benzodiazepine[1,4]-yl-4)-N'-(bromo-4-phenyl-)-thiourea]
IC50 [1]: > 10000 nM | IC50 [2, 9]: 137 nM | Selectivity CCK B/CCK A [3]: > 70 | IC50 (gastrin receptor [4]; [11]): 36 nM | Selectivity GASTRIN/CCK A (gastrin receptor [8]): > 250
